# From patent publication US20190359653A1, “SELECTIVE PEPTIDE INHIBITORS OF FRIZZLED” (Genentech, Inc., priority 2016, published 2019)
# System: Wnt3a-mediated β-catenin signaling in HEK293-TB cells
# Assay type: cell-based
sequence,measurement,value
LPSDDAEFWCHVMY [dFz7-21-L6A],reduction in cellular potency,~800 fold
